Results taken from article PMC5539244, “2-Oxoesters: A Novel Class of Potent and Selective Inhibitors of Cytosolic Group IVA Phospholipase A2” (Scientific Reports, 2017).
Where “and” joins values, the source holds several entries; their conditions need not be identical. Equal entries are not always repeated. Where two headings read alike, the source gives them in different places.

Columns and labels:
human GVIA iPLA2 = target: T1, human GVIA iPLA2 (Homo sapiens, UniProt O60733); assay: mixed micelle assay, GVIA iPLA2 inhibition; assay type: biochemical; conditions: for inhibition at 0.091 mole fraction: read-out: GVIA iPLA2 % Inhibition
T1 sequence (O60733 1-806): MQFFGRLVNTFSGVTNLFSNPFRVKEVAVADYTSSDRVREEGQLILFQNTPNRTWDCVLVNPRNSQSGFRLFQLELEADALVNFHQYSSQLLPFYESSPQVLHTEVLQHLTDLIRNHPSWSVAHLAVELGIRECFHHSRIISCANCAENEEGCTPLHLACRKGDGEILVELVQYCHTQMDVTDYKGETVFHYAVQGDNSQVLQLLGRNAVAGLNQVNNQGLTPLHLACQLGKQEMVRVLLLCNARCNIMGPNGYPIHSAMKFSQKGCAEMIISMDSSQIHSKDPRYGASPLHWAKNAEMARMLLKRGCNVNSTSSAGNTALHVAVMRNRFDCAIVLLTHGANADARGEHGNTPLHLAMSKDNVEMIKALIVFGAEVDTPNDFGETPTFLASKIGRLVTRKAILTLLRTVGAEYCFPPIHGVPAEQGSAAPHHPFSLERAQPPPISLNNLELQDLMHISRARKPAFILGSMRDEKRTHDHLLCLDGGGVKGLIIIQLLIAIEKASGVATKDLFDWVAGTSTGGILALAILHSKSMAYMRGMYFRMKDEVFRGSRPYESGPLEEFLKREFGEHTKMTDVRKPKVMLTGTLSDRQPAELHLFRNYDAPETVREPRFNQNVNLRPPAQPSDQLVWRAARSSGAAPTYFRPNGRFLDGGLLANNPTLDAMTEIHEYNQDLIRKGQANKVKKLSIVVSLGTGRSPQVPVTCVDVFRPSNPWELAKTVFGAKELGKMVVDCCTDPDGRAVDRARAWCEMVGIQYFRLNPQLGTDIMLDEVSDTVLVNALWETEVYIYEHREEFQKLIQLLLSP

[1] = target: T2, recombinant human GIVA cPLA2 (Homo sapiens, UniProt P47712); assay: mixed micelle assay, GIVA cPLA2 inhibition; assay type: biochemical; conditions: for GIVA cPLA2 X I(50): mole fraction of inhibitor in total substrate interface giving 50% inhibition; for inhibition at 0.091 mole fraction: read-out: GIVA cPLA2 % Inhibition
T2 sequence (P47712 1-749): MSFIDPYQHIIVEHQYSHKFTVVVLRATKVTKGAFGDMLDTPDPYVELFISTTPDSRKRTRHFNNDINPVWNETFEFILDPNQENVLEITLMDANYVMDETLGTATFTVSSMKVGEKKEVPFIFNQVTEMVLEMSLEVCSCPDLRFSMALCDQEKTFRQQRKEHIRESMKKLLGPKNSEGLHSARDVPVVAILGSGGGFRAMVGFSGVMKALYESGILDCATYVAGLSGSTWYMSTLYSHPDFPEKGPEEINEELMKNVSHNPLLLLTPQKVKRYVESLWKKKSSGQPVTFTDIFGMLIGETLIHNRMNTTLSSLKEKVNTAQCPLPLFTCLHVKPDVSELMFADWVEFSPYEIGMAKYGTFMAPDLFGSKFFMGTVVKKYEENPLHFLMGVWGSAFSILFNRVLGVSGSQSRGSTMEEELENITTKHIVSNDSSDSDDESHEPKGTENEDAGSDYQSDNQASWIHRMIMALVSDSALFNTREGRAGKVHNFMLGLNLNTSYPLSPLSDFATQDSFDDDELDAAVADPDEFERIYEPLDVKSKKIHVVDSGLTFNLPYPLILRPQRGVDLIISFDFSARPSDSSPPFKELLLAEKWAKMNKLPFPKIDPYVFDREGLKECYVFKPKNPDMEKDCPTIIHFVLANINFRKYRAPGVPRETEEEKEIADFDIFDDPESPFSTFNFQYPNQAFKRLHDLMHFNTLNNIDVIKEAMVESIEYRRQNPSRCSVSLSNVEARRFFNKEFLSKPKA

human GV sPLA2 = target: T3, human GV sPLA2 (Homo sapiens, UniProt P39877); assay: mixed micelle assay, GV sPLA2 inhibition; assay type: biochemical; conditions: read-out: GV sPLA2 % Inhibition
T3 sequence (P39877 21-138): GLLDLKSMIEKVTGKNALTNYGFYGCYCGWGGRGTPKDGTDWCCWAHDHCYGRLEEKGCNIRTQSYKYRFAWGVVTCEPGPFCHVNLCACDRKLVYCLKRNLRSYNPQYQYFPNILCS

[2] = target: T2, recombinant human GIVA cPLA2; parameters: method as in PMID 12086476, PMID 15214789; conditions: mixed micelle assay; cited from earlier work
logP measured by HPLC = assay type: physicochemical
RAW264.7 macrophages [3] = assay: cellular toxicity by trypan blue exclusion; assay type: cell-based, murine; conditions: any concentration tested, data not shown
RAW264.7 macrophages [4] = assay: KLA-elicited eicosanoid production in macrophages (LC-MS/MS); assay type: cell-based, murine; conditions: 5 μM inhibitor 1 h before KLA 100 ng/mL; supernatant at 24 h
Procedure: It is well established that the toll-like receptor 4 (TLR4)-specific agonist Kdo2-lipid A (KLA) leads to GIVA cPLA2 activation, [52] and release of arachidonic acid in macrophages that is then converted into eicosanoids by cyclooxygenase-2[53]–[55]. […] The high levels of PGD2 compared to background in culture supernatants following KLA stimulation makes it an ideal marker for GIVA cPLA2 activity in macrophages. […] RAW264.7 macrophages were pre-treated with vehicle control, DMSO or 17f (5 μM) for one hour prior to stimulation with KLA (100 ng/mL). Culture supernatants were collected after 24 hours for eicosanoid quantification by LC-MS/MS.
Figure 8 Inhibitor 17f inhibits KLA-elicited prostaglandin D2 biosynthesis by macrophages. […] Supernatants were collected 24 hr following stimulation for eicosanoid quantification.
RAW264.7 murine macrophage cells (ATCC #TIB-71) were maintained at 37 °C, 5% CO2 in DMEM (Life Technologies 11995–065) containing 10% FBS (Gemini), 100 U/mL penicillin/streptomycin, 1 mM sodium pyruvate and 4 mM L-glutamine. […] Supernatants were collected at 24 hours for eicosanoid quantification. […] Online UPLC-electrospray ionization MS/MS quantitation of eicosanoids was performed on a QTRAP 6500 hybrid quadrupole/linear ion-trap mass spectrometer (AB Sciex) via multiple reaction monitoring (MRM) in negative ion mode. […]

[5] = at 0.091 mole fraction of inhibitor, mixed micelles

| Structure (SMILES) | inhibition at 0.091 mole fraction (human GVIA iPLA2) | GIVA cPLA2 X I(50) [1] | inhibition at 0.091 mole fraction [1] | inhibition at 0.091 mole fraction (human GV sPLA2) | inhibition at 0.091 mole fraction [1, 5] | inhibition at 0.091 mole fraction (human GV sPLA2; [5]) | other results |
| --- | --- | --- | --- | --- | --- | --- | --- |
| CCCCCCOc1ccc(CCCCC(=O)C(=O)OCCCC(=O)O)cc1 [17b, 4-((6-(4-(Hexyloxy)phenyl)-2-oxohexanoyl)oxy)butanoic acid] | < 25% | 0.00289 ± 0.00043 mole fraction | > 95% | 52.6 ± 5.3% | – | – | – |
| CCCCCCCCCCCCCCC(=O)C(=O)OC [10e, Methyl 2-oxohexadecanoate] | 69.4 ± 12.2% | – | – | – | 68.2 ± 2.7% | 27.5 ± 0.9% | – |
| O=C(O)CCCOC(=O)C(=O)CCCc1ccc(-c2ccccc2)cc1 [17g, 4-((5-([1,1′-Biphenyl]-4-yl)-2-oxopentanoyl)oxy)butanoic acid] | 84 ± 1.5% | 0.0065 ± 0.002 mole fraction | > 95% | < 25% | – | – | melting point: 58 to 60 °C |
| CCCCCCCCCCCCCCC(=O)C(=O)OCCCC(=O)O [17a, 4-((2-Oxohexadecanoyl)oxy)butanoic acid] | < 25% | 0.00008 ± 0.00001 mole fraction | > 95% | < 25% | – | – | melting point: 76 to 78 °C |
| CCCCCCCCCCCCCCC(=O)C(=O)O [12e, 2-Oxohexadecanoic acid] | < 25% | – | – | – | 78.4 ± 3.5% | < 25% | – |
| O=C1NC(=O)/C(=C/c2ccc(C(=O)NC[C@@H]3C[C@@H](SC(c4ccccc4)(c4ccccc4)c4ccccc4)CN3C(=O)c3ccccc3C(=O)c3ccc(F)cc3F)cc2)S1 [compound 1, pyrrophenone] | – | – | – | – | – | – | GIVA cPLA2 X I(50) [2]: 0.002 mole fraction |
| CCOC(=O)CCCOC(=O)C(=O)CCCCc1ccccc1 [compound 19, 4-Ethoxy-4-oxobutyl 2-oxo-6-phenylhexanoate] | < 25% | – | – | – | 27.3 ± 4.8% | < 25% | – |
| CCCCCCCCCCCCCCC(O)C(=O)OCCCC(=O)O (stereo not drawn) [compound 20, 4-((2-Hydroxyhexadecanoyl)oxy)butanoic acid] | < 25% | – | < 25% | 41 ± 0.2% | – | – | – |
| CCCCCCCCCCCCCCC(=O)C(=O)OCCCCC(=O)O [17e, 5-((2-Oxohexadecanoyl)oxy)pentanoic acid] | – | 0.00007 ± 0.00001 mole fraction | – | < 25% | > 95% | – | inhibition at 0.091 mole fraction (human GVIA iPLA2; [5]): 25% |
| O=C(O)CCCCOC(=O)C(=O)CCCc1ccc(-c2ccccc2)cc1 [17h, 5-((5-([1,1′-Biphenyl]-4-yl)-2-oxopentanoyl)oxy)pentanoic acid] | – | 0.0010 ± 0.0003 mole fraction | – | < 25% | > 95% | – | inhibition at 0.091 mole fraction (human GVIA iPLA2; [5]): 94 ± 1.4% |
| CCCCCCCCCCOc1ccc(OCC(=O)Cn2cc(C(=O)OC)c3cc(C(=O)O)ccc32)cc1 [compound 4, reference compound] | – | 0.00008 mole fraction and 0.00008 ± 0.000005^c mole fraction | > 95% | – | – | – | – |
| COC(=O)C(=O)CCCCc1ccc2ccccc2c1 [10b, Methyl 6-(naphthalen-2-yl)-2-oxohexanoate] | – | – | – | – | 55 ± 4% | < 25% | inhibition at 0.091 mole fraction (human GVIA iPLA2; [5]): > 95%; GVIA iPLA2 X I(50) (human GVIA iPLA2; mole fraction of inhibitor in total substrate interface giving 50% inhibition): 0.0052 mole fraction and 0.0052 ± 0.0007 mole fraction |
| COC(=O)C(=O)CCCCc1ccccc1 [10a, Methyl 2-oxo-6-phenylhexanoate] | – | – | – | – | < 25% | < 25% | inhibition at 0.091 mole fraction (human GVIA iPLA2; [5]): 72 ± 4% |
| CC(C)(C)OC(=O)CCCOC(=O)C(=O)CCCCc1ccccc1 [16c, 4-(tert-Butoxy)-4-oxobutyl 2-oxo-6-phenylhexanoate] | < 25% | – | – | – | < 25% | < 25% | – |
| O=C(O)CCCOC(=O)C(=O)CCCCc1ccc(-c2ccccc2)cc1 [17d, 4-(6-(Biphenyl-4-yl)-2-oxohexanoyloxy)butanoic acid] | < 25% | 0.00068 mole fraction and 0.00068 ± 0.00007 mole fraction | > 95% | < 25% | – | – | times less potent than 17a on GIVA cPLA2 ([1]; ratio of X I(50) values): eight; melting point: 101 to 103 °C |
| O=C(O)CCCCOC(=O)C(=O)CCCCc1ccc(-c2ccccc2)cc1 [17f, 5-((6-([1,1′-Biphenyl]-4-yl)-2-oxohexanoyl)oxy)pentanoic acid] | – | 0.000078 ± 0.00001 mole fraction | > 95% | < 25% | – | – | increase in potency compared to GK174 on GIVA cPLA2 ([1]; addition of the carboxylic moiety): 10 fold; chromatographic logP (logP measured by HPLC): 3.5; cellular toxicity (RAW264.7 macrophages [3]): did not show cellular toxicity; decrease in KLA-elicited PGD2 production (RAW264.7 macrophages [4]): over 50% |
